Data as given in the supplement of paper PMC4862054.

These compounds were tested on HDQ-P1 (assay: normalised viability (% of control), CellTiter-Blue; higher = more viable cells (about 100 = DMSO control)). Conditions: 1000 nM; incubation time: 72 h.
Experimental: (§1)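 DSRT, CellTiter-Blue viability, 72 h incubation. Signal is normalised to DMSO and benzethonium chloride controls. Value is the normalised response at dose 7.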

| Compound | normalised viability [%] |
| --- | --- |
| COc1cc([C@@H]2c3cc4c(cc3[C@@H](O[C@@H]3O[C@@H]5CO[C@@H](c6cccs6)O[C@H]5[C@H](O)[C@H]3O)[C@H]3COC(=O)[C@H]23)OCO4)cc(OC)c1O [Teniposide] | 82.3 |
| CCc1cncnc1N1CCN(Cc2nc3ccc(C(F)(F)F)cc3[nH]2)CC1 | 95.9 |
| Oc1ncc(N(CCCl)CCCl)c(O)n1 [Uracil mustard] | 117 |
| COc1cc2nccc(Oc3ccc(NC(=O)Nc4cc(C)on4)c(Cl)c3)c2cc1OC [Tivozanib] | 72.5 |
| O=C(Cc1ccc(-c2ccc(OCCN3CCOCC3)cc2)cn1)NCc1ccccc1 [KX2-391] | 45.1 |
| CC1=C(/C=C/C(C)=C/C=C/C(C)=C/C(=O)O)C(C)(C)CCC1 [Tretinoin] | 109 |

What follows are compounds tested on DU-4475 in the same assay as above. Conditions: 25 nM; incubation time: 72 h.
Experimental: as §1

| Compound | normalised viability [%] |
| --- | --- |
| CC(=O)Nc1cccc(-n2c(=O)n(C3CC3)c(=O)c3c(Nc4ccc(I)cc4F)n(C)c(=O)c(C)c32)c1 | -0.2 |

Same assay, conditions: 100 nM; incubation time: 72 h

| Compound | normalised viability [%] |
| --- | --- |
| COc1cc2c(Oc3ccc4[nH]c(C)cc4c3F)ncnc2cc1OCCCN1CCCC1 [Cediranib] | 81.3 |
| C=CC(=O)N1CCC[C@@H](n2nc(-c3ccc(Oc4ccccc4)cc3)c3c(N)ncnc32)C1 | 92.4 |
| Cc1cnc(NC(=O)Nc2cc(Br)c(C)cc2OC[C@@H]2CNCCO2)cn1 | 109 |

Same assay, conditions: 1000 nM; incubation time: 72 h

| Compound | normalised viability [%] |
| --- | --- |
| Nc1nc2[nH]cc(CCc3ccc(C(=O)N[C@@H](CCC(=O)O)C(=O)O)cc3)c2c(=O)[nH]1 [Pemetrexed] | 93.9 |
| C[C@H]1C[C@@H]2[C@H]([C@@H](O)C[C@@]3(C)[C@H]2CC[C@]3(O)C(=O)CO)[C@@]2(C)C=CC(=O)C=C12 [Methylprednisolone] | 104 |
| COc1cc([C@@H]2c3cc4c(cc3[C@@H](O[C@@H]3O[C@@H]5CO[C@@H](c6cccs6)O[C@H]5[C@H](O)[C@H]3O)[C@H]3COC(=O)[C@H]23)OCO4)cc(OC)c1O [Teniposide] | 5.16 |
| CCc1cncnc1N1CCN(Cc2nc3ccc(C(F)(F)F)cc3[nH]2)CC1 | 101 |
| Oc1ncc(N(CCCl)CCCl)c(O)n1 [Uracil mustard] | 96.2 |
| COc1cc2nccc(Oc3ccc(NC(=O)Nc4cc(C)on4)c(Cl)c3)c2cc1OC [Tivozanib] | 124 |
| O=C(Cc1ccc(-c2ccc(OCCN3CCOCC3)cc2)cn1)NCc1ccccc1 [KX2-391] | 9.93 |
| CC1=C(/C=C/C(C)=C/C=C/C(C)=C/C(=O)O)C(C)(C)CCC1 [Tretinoin] | 102 |

Each compound was assayed on CAL-51 in the same assay as above. Conditions: 25 nM; incubation time: 72 h.
Experimental: as §1

| Compound | normalised viability [%] |
| --- | --- |
| CC(=O)Nc1cccc(-n2c(=O)n(C3CC3)c(=O)c3c(Nc4ccc(I)cc4F)n(C)c(=O)c(C)c32)c1 | 69 |

Same assay, conditions: 100 nM; incubation time: 72 h

| Compound | normalised viability [%] |
| --- | --- |
| COc1cc2c(Oc3ccc4[nH]c(C)cc4c3F)ncnc2cc1OCCCN1CCCC1 [Cediranib] | 81.6 |
| C=CC(=O)N1CCC[C@@H](n2nc(-c3ccc(Oc4ccccc4)cc3)c3c(N)ncnc32)C1 | 91.9 |
| Cc1cnc(NC(=O)Nc2cc(Br)c(C)cc2OC[C@@H]2CNCCO2)cn1 | 91.2 |

Same assay, conditions: 1000 nM; incubation time: 72 h

| Compound | normalised viability [%] |
| --- | --- |
| Nc1nc2[nH]cc(CCc3ccc(C(=O)N[C@@H](CCC(=O)O)C(=O)O)cc3)c2c(=O)[nH]1 [Pemetrexed] | 102 |
| C[C@H]1C[C@@H]2[C@H]([C@@H](O)C[C@@]3(C)[C@H]2CC[C@]3(O)C(=O)CO)[C@@]2(C)C=CC(=O)C=C12 [Methylprednisolone] | 102 |
| COc1cc([C@@H]2c3cc4c(cc3[C@@H](O[C@@H]3O[C@@H]5CO[C@@H](c6cccs6)O[C@H]5[C@H](O)[C@H]3O)[C@H]3COC(=O)[C@H]23)OCO4)cc(OC)c1O [Teniposide] | 24.4 |
| CCc1cncnc1N1CCN(Cc2nc3ccc(C(F)(F)F)cc3[nH]2)CC1 | 87 |
| Oc1ncc(N(CCCl)CCCl)c(O)n1 [Uracil mustard] | 89.6 |
| COc1cc2nccc(Oc3ccc(NC(=O)Nc4cc(C)on4)c(Cl)c3)c2cc1OC [Tivozanib] | 90.3 |
| O=C(Cc1ccc(-c2ccc(OCCN3CCOCC3)cc2)cn1)NCc1ccccc1 [KX2-391] | 11.1 |
| CC1=C(/C=C/C(C)=C/C=C/C(C)=C/C(=O)O)C(C)(C)CCC1 [Tretinoin] | 93.2 |

These compounds were tested on CAL-120 in the same assay as above. Conditions: 2.5 nM; incubation time: 72 h.
Experimental: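 DSRT, CellTiter-Blue viability, 72 h incubation. Signal is normalised to DMSO and benzethonium chloride controls. Value is the normalised response at dose 3.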

| Compound | normalised viability [%] |
| --- | --- |
| CC(=O)Nc1cccc(-n2c(=O)n(C3CC3)c(=O)c3c(Nc4ccc(I)cc4F)n(C)c(=O)c(C)c32)c1 | 99.4 |

Same assay, conditions: 10 nM; incubation time: 72 h

| Compound | normalised viability [%] |
| --- | --- |
| COc1cc2c(Oc3ccc4[nH]c(C)cc4c3F)ncnc2cc1OCCCN1CCCC1 [Cediranib] | 112 |
| C=CC(=O)N1CCC[C@@H](n2nc(-c3ccc(Oc4ccccc4)cc3)c3c(N)ncnc32)C1 | 83.5 |
| Cc1cnc(NC(=O)Nc2cc(Br)c(C)cc2OC[C@@H]2CNCCO2)cn1 | 87.9 |

Same assay, conditions: 100 nM; incubation time: 72 h

| Compound | normalised viability [%] |
| --- | --- |
| Nc1nc2[nH]cc(CCc3ccc(C(=O)N[C@@H](CCC(=O)O)C(=O)O)cc3)c2c(=O)[nH]1 [Pemetrexed] | 86 |
| C[C@H]1C[C@@H]2[C@H]([C@@H](O)C[C@@]3(C)[C@H]2CC[C@]3(O)C(=O)CO)[C@@]2(C)C=CC(=O)C=C12 [Methylprednisolone] | 79.8 |
| COc1cc([C@@H]2c3cc4c(cc3[C@@H](O[C@@H]3O[C@@H]5CO[C@@H](c6cccs6)O[C@H]5[C@H](O)[C@H]3O)[C@H]3COC(=O)[C@H]23)OCO4)cc(OC)c1O [Teniposide] | 75.2 |
| CCc1cncnc1N1CCN(Cc2nc3ccc(C(F)(F)F)cc3[nH]2)CC1 | 105 |
| Oc1ncc(N(CCCl)CCCl)c(O)n1 [Uracil mustard] | 87.7 |
| COc1cc2nccc(Oc3ccc(NC(=O)Nc4cc(C)on4)c(Cl)c3)c2cc1OC [Tivozanib] | 106 |
| O=C(Cc1ccc(-c2ccc(OCCN3CCOCC3)cc2)cn1)NCc1ccccc1 [KX2-391] | 27.6 |
| CC1=C(/C=C/C(C)=C/C=C/C(C)=C/C(=O)O)C(C)(C)CCC1 [Tretinoin] | 77.7 |
